According to patent US12552797B2, “Process for making (3-[cyclopropylethoxy(difluoro)methyl]-6-6[5-fluoro-6-(2,2,2-trifluoroethoxy-3-pyridyl]- [1,2,4]triazolo[4,3-a]pyrazine” (Praxis Precision Medicines, Inc., priority 2019, dated 2026):

What was measured:
[1] = Stability of suspension formulations in methylcellulose/Poloxamer 188 vehicles (appearance, concentration, purity, PSD); type: physicochemical; parameters: key to Appearance: *: homogeneous suspension initially, sedimentation occurred over time and returned to homogeneous after gentle agitation for ~1 min; #: viscous homogeneous suspension initially, sedimentation occurred over time and returned to homogeneous after gentle agitation for ~2 mins; conditions: 0.5% 400 cP MC, 0.2% Poloxamer 188
Description: (§1) As shown in Tables 9-11, various suspension formulations were tested for stability under different conditions.
(§2) To prepare a suspension weigh required amount of milled Compound 1 into a glass container and add corresponding volume of the vehicle. Thoroughly disperse the compound into a homogenous suspension using an overhead mixer at the final concentration target. Concentrations were prepared at 0.1 mg/mL and at 10 mg/mL. The suspension products were physically evaluated on visual appearance, concentration, purity and PSD.
(§3) The vehicles are prepared by dissolving 0.5% by weight of either 400 cP methylcellulose or 4000 cP methylcellulose and 0.2% Poloxamer 188. For the preserved suspensions, additionally 1.0% by volume of paraben preservative solution was dissolved into vehicle using an overhead mixer. The paraben preservative solution was prepared by dissolving 0.10 g methyl paraben, 0.025 g propylparaben in 9.875 g propylene glycol dissolved by mixing with a stir bar at room temperature for 1 hour.

[2] = as above; type: physicochemical; parameters: key: *: homogeneous suspension initially, sedimentation occurred over time and returned to homogeneous after gentle agitation for ~1 min; #: viscous homogeneous suspension initially, sedimentation occurred over time and returned to homogeneous after gentle agitation for ~2 mins; conditions: 96 h at RT
Description: as §1, §2, §3

[3] = target 0.1 mg/mL, 2-8° C., 14 D
[4] = target 0.1 mg/mL, 2-8° C., 28 D
[5] = target 0.1 mg/mL, 2-8° C., time 0
[6] = target 0.1 mg/mL, 25° C./60% RH, 2 M
[7] = target 0.1 mg/mL, 25° C./60% RH, 3 M
[8] = target 0.1 mg/mL, 25° C./60% RH, 7 D
[9] = target 0.1 mg/mL, 25° C./60% RH, 14 D
[10] = target 0.1 mg/mL, 25° C./60% RH, 28 D
[11] = target 0.1 mg/mL, 25° C./60% RH, time 0
[12] = target 10 mg/mL, 2-8° C., time 0
[13] = target 10 mg/mL, 25° C./60% RH, 2 M
[14] = target 10 mg/mL, 25° C./60% RH, 3 M
[15] = target 10 mg/mL, 25° C./60% RH, 7 D
[16] = target 10 mg/mL, 25° C./60% RH, 14 D
[17] = target 10 mg/mL, 25° C./60% RH, 28 D
[18] = target 10 mg/mL, 25° C./60% RH, time 0

CCOC(F)(F)c1nnc2cnc(-c3cnc(OCC(F)(F)F)c(F)c3)cn12 [Compound 1, 3-(ethoxydifluoromethyl)-6-(5-fluoro-6-(2,2,2-trifluoroethoxy)pyridin-3-yl)-[1,2,4]triazolo[4,3-a]pyrazine]
Appearance ([1]; target 0.1 mg/mL, 2-8° C., 2 M): * | Conc. ([1]; target 0.1 mg/mL, 2-8° C., 2 M): 110 µg/mL | PSD (D90) ([1]; target 0.1 mg/mL, 2-8° C., 2 M): 9.1 μm | Purity ([1]; target 0.1 mg/mL, 2-8° C., 2 M): 95.87% | Appearance ([1]; target 0.1 mg/mL, 2-8° C., 3 M): * | Conc. ([1]; target 0.1 mg/mL, 2-8° C., 3 M): 110 µg/mL | PSD (D90) ([1]; target 0.1 mg/mL, 2-8° C., 3 M): 12.7 μm | Purity ([1]; target 0.1 mg/mL, 2-8° C., 3 M): 93.20% | Appearance ([1]; target 0.1 mg/mL, 2-8° C., 7 D): * | Conc. ([1]; target 0.1 mg/mL, 2-8° C., 7 D): 120 µg/mL | PSD (D90) ([1]; target 0.1 mg/mL, 2-8° C., 7 D): 18.2 μm | Purity ([1]; target 0.1 mg/mL, 2-8° C., 7 D): 100% | Appearance [1, 3]: * | Conc. [1, 3]: 110 µg/mL | PSD (D90) [1, 3]: 14.2 μm | Purity [1, 3]: 100% | Appearance [1, 4]: * | Conc. [1, 4]: 110 µg/mL | PSD (D90) [1, 4]: 15.4 μm | Purity [1, 4]: 100% | Appearance [1, 5]: * | Conc. [1, 5]: 110 µg/mL | PSD (D90) [1, 5]: 19.9 μm | Purity [1, 5]: 100% | Appearance [1, 6]: * | Conc. [1, 6]: 110 µg/mL | PSD (D90) [1, 6]: 8.6 μm | Purity [1, 6]: 95.87% | Appearance [1, 7]: * | Conc. [1, 7]: 110 µg/mL | PSD (D90) [1, 7]: 11.1 μm | Purity [1, 7]: 93.20% | Appearance [1, 8]: * | Conc. [1, 8]: 110 µg/mL | PSD (D90) [1, 8]: 19.9 μm | Purity [1, 8]: 100.0% | Appearance [1, 9]: * | Conc. [1, 9]: 110 µg/mL | PSD (D90) [1, 9]: 12.9 μm | Purity [1, 9]: 100% | Appearance [1, 10]: * | Conc. [1, 10]: 100 µg/mL | PSD (D90) [1, 10]: 8.7 μm | Purity [1, 10]: 100% | Appearance [1, 11]: * | Conc. [1, 11]: 110 µg/mL | PSD (D90) [1, 11]: 19.9 μm | Purity [1, 11]: 100.0% | Appearance ([1]; target 10 mg/mL, 2-8° C., 2 M): * | Conc. ([1]; target 10 mg/mL, 2-8° C., 2 M): 10990 µg/mL | PSD (D90) ([1]; target 10 mg/mL, 2-8° C., 2 M): 4.0 μm | Purity ([1]; target 10 mg/mL, 2-8° C., 2 M): 99.83% | Appearance ([1]; target 10 mg/mL, 2-8° C., 3 M): * | Conc. ([1]; target 10 mg/mL, 2-8° C., 3 M): 10130 µg/mL | PSD (D90) ([1]; target 10 mg/mL, 2-8° C., 3 M): 3.6 μm | Purity ([1]; target 10 mg/mL, 2-8° C., 3 M): 99.83% | Appearance ([1]; target 10 mg/mL, 2-8° C., 7 D): * | Conc. ([1]; target 10 mg/mL, 2-8° C., 7 D): 10180 µg/mL | PSD (D90) ([1]; target 10 mg/mL, 2-8° C., 7 D): 6.4 μm | Purity ([1]; target 10 mg/mL, 2-8° C., 7 D): 99.83% | Appearance ([1]; target 10 mg/mL, 2-8° C., 14 D): * | Conc. ([1]; target 10 mg/mL, 2-8° C., 14 D): 10660 µg/mL | PSD (D90) ([1]; target 10 mg/mL, 2-8° C., 14 D): 5.4 μm | Purity ([1]; target 10 mg/mL, 2-8° C., 14 D): 99.83% | Appearance ([1]; target 10 mg/mL, 2-8° C., 28 D): * | Conc. ([1]; target 10 mg/mL, 2-8° C., 28 D): 10560 µg/mL | PSD (D90) ([1]; target 10 mg/mL, 2-8° C., 28 D): 3.8 μm | Purity ([1]; target 10 mg/mL, 2-8° C., 28 D): 99.83% | Appearance [1, 12]: * | Conc. [1, 12]: 10040 µg/mL | PSD (D90) [1, 12]: 5.6 μm | Purity [1, 12]: 99.83% | Appearance [1, 13]: * | Conc. [1, 13]: 10470 µg/mL | PSD (D90) [1, 13]: 4.3 μm | Purity [1, 13]: 99.83% | Appearance [1, 14]: * | Conc. [1, 14]: 10160 µg/mL | PSD (D90) [1, 14]: 3.5 μm | Purity [1, 14]: 99.83% | Appearance [1, 15]: * | Conc. [1, 15]: 10480 µg/mL | PSD (D90) [1, 15]: 6.3 μm | Purity [1, 15]: 99.83% | Appearance [1, 16]: * | Conc. [1, 16]: 9850 µg/mL | PSD (D90) [1, 16]: 5.2 μm | Purity [1, 16]: 99.83% | Appearance [1, 17]: * | Conc. [1, 17]: 10000 µg/mL | PSD (D90) [1, 17]: 4.6 μm | Purity [1, 17]: 99.83% | Appearance [1, 18]: * | Conc. [1, 18]: 10040 µg/mL | PSD (D90) [1, 18]: 5.6 μm | Purity [1, 18]: 99.83% | Visual Appearance ([2]; 0.5% 400 cP MC, 0.2% Poloxamer 188, 0.1 mg/mL): * | Visual Appearance ([2]; 0.5% 400 cP MC, 0.2% Poloxamer 188, 10 mg/mL): * | Visual Appearance ([2]; 0.5% 400 cP MC, 0.2% Poloxamer 188 and 1.0% of paraben preservative solution, 0.1 mg/mL): * | Visual Appearance ([2]; 0.5% 400 cP MC, 0.2% Poloxamer 188 and 1.0% of paraben preservative solution, 10 mg/mL): * | Visual Appearance ([2]; 0.5% 4000 cP MC, 0.2% Poloxamer 188, 0.1 mg/mL): # | Visual Appearance ([2]; 0.5% 4000 cP MC, 0.2% Poloxamer 188, 10 mg/mL): # | Visual Appearance ([2]; 0.5% 4000 cP MC, 0.2% Poloxamer 188 and 1.0% of paraben preservative solution, 0.1 mg/mL): # | Visual Appearance ([2]; 0.5% 4000 cP MC, 0.2% Poloxamer 188 and 1.0% of paraben preservative solution, 10 mg/mL): #
